Source: patent US8470834B2, “AZO-substituted pyridine and pyrimidine derivatives and their use in treating viral infections” (Merck Sharp & Dohme Corp., priority 2008, dated 2013)

Key:
HCV replicon cells = test: Cell-based HCV Replicon Assay; details: Hepatitis C virus, 72 h; replicon RNA level by real time PCR (Taqman), day 3; EC90 = concentration to achieve ΔCT=3.2 over baseline
Description: Assays Cell-based HCV Replicon Assay
To measure cell-based anti-HCV activity of the compounds of the present invention, replicon cells were seeded at 5000 cells/well in 96-well collagen I-coated Nunc plates in the presence of the compound of the invention. […] The final concentration of DMSO was 0.5%, fetal bovine serum was 10%, in the assay media. […] The replicon RNA level was measured using real time PCR (Taqman assay). The amplicon was located in 5B. The
GAPDH RNA was used as endogenous control and was amplified in the same reaction as NS5B (multiplex PCR) using primers and VIC-labeled probe recommended by the manufacturer (PE Applied Biosystem). The real-time RT-PCR reactions were run on ABI PRISM 7900HT Sequence Detection System using the following program: 48° C. for 30 min, 95° C. for 10 min, 40 cycles of 95° C. for 15 sec, 60° C. for 1 min. The ΔCT values (CT5B-CTGAPDH) were plotted against the concentration of test compound and fitted to the sigmoid dose-response model using GraphPad PRISM software. EC50 was defined as the concentration of inhibitor necessary to achieve ΔCT=1 over the projected baseline; EC90 the concentration necessary to achieve ΔCT=3.2 over the baseline. Alternatively, to quantitate the absolute amount of replicon RNA, a standard curve was established by including serially diluted T7 transcripts of replicon RNA in the Taqman assay. […]

Row | melting point | SMILES | EC90 (HCV replicon cells) [µM]
1 | – | Nc1nc(Cl)c(/N=N/c2ccc(Cl)cc2)c(N[C@@H]2C[C@H](CO)[C@@H](O)C2)n1 (racemic) [Compound 8, Cyclopentanemethanol, 4-[[2-amino-6-chloro-5-[(4-chlorophenyl)azo]-4-pyrimidinyl]amino]-2-hydroxy-, cis, trans—(+−)—] | > 5
2 | 238 to 241 °C (dec.) | Nc1nc(Cl)c(/N=N/c2ccc(Cl)cc2)c(N[C@H]2C[C@@H](CO)[C@H](O)[C@@H]2O)n1 [Compound 11, (1S,2R,3S,5S)-3-[[2-amino-6-chloro-5-[(4-chlorophenyl)azo]-4-pyrimidinyl]amino]-5-(hydroxymethyl)-1,2-cyclopentanediol] | –
